Measurements published in US10143746B2, “Immunomodulators” (BRISTOL-MYERS SQUIBB COMPANY, priority 2016, dated 2018).
Where a SMILES comes first, the peptide text is derived from it. Bridges are numbered along the chain shown (N, C = ends). [ ]: non-standard residue; d: D form. Hyp = O=C(O)[C@@H]1C[C@@H](O)CN1; NMeNle = CCCC[C@H](NC)C(=O)O; NMeA = CN[C@@H](C)C(=O)O; Orn = NCCC[C@H](N)C(=O)O; Dab = NCC[C@H](N)C(=O)O; Sar = CNCC(=O)O

Each molecule was assayed against PD-1-Ig binding to PD-L1-TVMV-His (PD-L1-His) (Homo sapiens (Human), UniProt Q9NZQ7) (assay: PD-1/PD-L1 Homogenous Time-Resolved Fluorescence (HTRF) binding assay (PD-1-Ig/PD-L1-His)). Conditions: PD-1-Ig (20 nM)/PD-L1-His (10 nM); range classes.
Excerpt: Methods for Testing the Ability of Macrocyclic Compounds to Compete for the Binding of PD-1 to PD-L1 Using Homogenous Time-Resolved Fluorescence (HTRF) Binding Assays
The ability of the macrocyclic compounds of the present disclosure to bind to PD-L1 was investigated using a PD-1/PD-L1 Homogenous Time-Resolved Fluorescence (HTRF) binding assay.
Homogenous Time-Resolved Fluorescence (HTRF) Assays of Binding of Soluble PD-1 to Soluble PD-L1. Soluble PD-1 and soluble PD-L1 refers to proteins with carboxyl-end truncations that remove the transmembrane-spanning regions and are fused to heterologous sequences, specifically the Fc portion of the human immunoglobulin G sequence (Ig) or the hexahistidine epitope tag (His). All binding studies were performed in an HTRF assay buffer consisting of dPBS supplemented with 0.1% (w/v) bovine serum albumin and 0.05% (v/v) Tween-20. For the PD-1-Ig/PD-L1-His binding assay, inhibitors were pre-incubated with PD-L1-His (10 nM final) for 15 m in 4 μl of assay buffer, followed by addition of PD-1-Ig (20 nM final) in 1 μl of assay buffer and further incubation for 15 m. PD-L1 fusion proteins from either human, cynomologous macaques, mouse, or other species were used. HTRF detection was achieved using europium crypate-labeled anti-Ig monoclonal antibody (1 nM final) and allophycocyanin (APC) labeled anti-His monoclonal antibody (20 nM final). Antibodies were diluted in HTRF detection buffer and 5 μl was dispensed on top of binding reaction. […] Additional binding assays were established between PD-1-Ig/PD-L2-His (20 and 5 nM, respectively), CD80-His/PD-L1-Ig (100 and 10 nM, respectively) and CD80-His/CTLA4-Ig (10 and 5 nM, respectively).
Recombinant Proteins. […] Human PD-L2-His (Sino Biologicals), CD80-His (Sino Biologicals), CTLA4-Ig (RnD Systems) were all obtained through commercial sources.

Chain of PD-1-Ig binding to PD-L1-TVMV-His (PD-L1-His) (Q9NZQ7 other isoform, or with tags, fused parts or gaps): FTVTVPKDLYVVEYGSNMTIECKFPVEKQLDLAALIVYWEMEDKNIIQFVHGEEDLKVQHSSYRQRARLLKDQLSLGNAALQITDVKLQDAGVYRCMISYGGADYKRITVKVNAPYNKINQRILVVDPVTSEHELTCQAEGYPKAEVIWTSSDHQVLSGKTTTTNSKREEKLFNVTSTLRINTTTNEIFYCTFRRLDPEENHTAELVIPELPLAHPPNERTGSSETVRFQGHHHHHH

| IC50 [nM] | Structure (SMILES) |
| --- | --- |
| 10 to 99 | CCCC[C@H]1C(=O)N(C)[C@@H](CCCC)C(=O)N[C@@H](C)C(=O)N[C@H](C(=O)NCC(N)=O)CSCC(=O)N[C@@H](Cc2ccc(O)cc2)C(=O)N(C)[C@@H](C)C(=O)N[C@H]2CC(=O)NCCCC[C@H](NC(=O)[C@H](Cc3cnc[nH]3)NC(=O)[C@@H]3CCCN3C2=O)C(=O)N2C[C@H](O)C[C@H]2C(=O)N[C@@H](Cc2c[nH]c3ccccc23)C(=O)N[C@@H](CO)C(=O)N[C@@H](Cc2c[nH]c3ccccc23)C(=O)N1C [Example 1507] ({CH2CO}-Y[NMeA]DPHK[Hyp]WSW[NMeNle][NMeNle]ACG-NH2; lactam 3-6; thioether N-14) |
| 10 to 99 | CCCC[C@H]1C(=O)N(C)[C@@H](CCCC)C(=O)N[C@@H](C)C(=O)N[C@H](C(=O)NCC(N)=O)CSCC(=O)N[C@@H](Cc2ccc(O)cc2)C(=O)N(C)[C@@H](C)C(=O)N[C@H]2CCC(=O)NCCC[C@H](NC(=O)[C@H](Cc3cnc[nH]3)NC(=O)[C@@H]3CCCN3C2=O)C(=O)N2C[C@H](O)C[C@H]2C(=O)N[C@@H](Cc2c[nH]c3ccccc23)C(=O)N[C@@H](CO)C(=O)N[C@@H](Cc2c[nH]c3ccccc23)C(=O)N1C [Example 1505] ({CH2CO}-Y[NMeA]EPH[Orn][Hyp]WSW[NMeNle][NMeNle]ACG-NH2; lactam 3-6; thioether N-14) |
| 10 to 99 | CCCC[C@H]1C(=O)N(C)[C@@H](CCCC)C(=O)N[C@@H](C)C(=O)N[C@H](C(=O)NCC(N)=O)CSCC(=O)N[C@@H](Cc2ccc(O)cc2)C(=O)N(C)[C@@H](C)C(=O)N[C@H]2CCC(=O)NCC[C@H](NC(=O)[C@H](Cc3cnc[nH]3)NC(=O)[C@@H]3CCCN3C2=O)C(=O)N2C[C@H](O)C[C@H]2C(=O)N[C@@H](Cc2c[nH]c3ccccc23)C(=O)N[C@@H](CO)C(=O)N[C@@H](Cc2c[nH]c3ccccc23)C(=O)N1C [Example 1501] ({CH2CO}-Y[NMeA]EPH[Dab][Hyp]WSW[NMeNle][NMeNle]ACG-NH2; lactam 3-6; thioether N-14) |
| 3 to 9.9 | CCCC[C@H]1C(=O)N(C)[C@@H](CCCC)C(=O)N[C@H]2CCC(=O)NCCCC[C@H](NC(=O)[C@H](Cc3c[nH]c4ccccc34)NC(=O)[C@@H]3C[C@@H](O)CN3C(=O)[C@H](CC(C)C)NC(=O)[C@H](Cc3c[nH]cn3)NC(=O)[C@@H]3CCCN3C(=O)[C@H](CC(N)=O)NC(=O)[C@@H](C)NC(=O)[C@H](Cc3ccc(O)cc3)NC(=O)CSC[C@@H](C(=O)NCC(N)=O)NC2=O)C(=O)N[C@@H](Cc2c[nH]c3ccccc23)C(=O)N1C [Example 5008] ({CH2CO}-Y[dA]NPHL[Hyp]WKW[NMeNle][NMeNle]ECG-NH2; lactam 9-13; thioether N-14) |
| 10 to 99 | CCCC[C@H]1C(=O)N(C)[C@@H](CCCC)C(=O)N[C@H]2CCCCNC(=O)CC[C@H](NC(=O)[C@H](Cc3c[nH]c4ccccc34)NC(=O)CN(C)C(=O)[C@H](CC(C)C)NC(=O)[C@H](Cc3c[nH]cn3)NC(=O)[C@@H]3CCCN3C(=O)[C@H](CC(N)=O)NC(=O)[C@H](C)N(C)C(=O)[C@H](Cc3ccccc3)NC(=O)CSC[C@@H](C(=O)NCC(N)=O)NC2=O)C(=O)N[C@@H](Cc2c[nH]c3ccccc23)C(=O)N1C [Example 5002] ({CH2CO}-F[NMeA]NPHL[Sar]WEW[NMeNle][NMeNle]KCG-NH2; lactam 9-13; thioether N-14) |
| 10 to 99 | CCCC[C@H]1C(=O)N(C)[C@@H](CCCC)C(=O)N[C@@H](C)C(=O)N[C@H]2CSCC(=O)N[C@@H](Cc3ccc(O)cc3)C(=O)N(C)[C@@H](C)C(=O)N[C@@H](CC(N)=O)C(=O)N3CCC[C@H]3C(=O)N[C@@H](Cc3cn(C(=O)C(F)(F)F)cn3)C(=O)N[C@@H](CC(C)C)C(=O)N[C@@H](CCCNC(=O)CNC2=O)C(=O)N[C@@H](Cc2c[nH]c3ccccc23)C(=O)N[C@@H](CO)C(=O)N[C@@H](Cc2c[nH]c3ccccc23)C(=O)N1C [Example 1401] |
| 10 to 99 | CCCC[C@H]1C(=O)N(C)[C@@H](CCCC)C(=O)N[C@@H](C)C(=O)N[C@H](C(=O)NCC(N)=O)CSCC(=O)N[C@@H](Cc2ccc(O)cc2)C(=O)N(C)[C@@H](C)C(=O)N[C@H]2CC(=O)NCC[C@H](NC(=O)[C@H](Cc3cnc[nH]3)NC(=O)[C@@H]3CCCN3C2=O)C(=O)N2C[C@H](O)C[C@H]2C(=O)N[C@@H](Cc2c[nH]c3ccccc23)C(=O)N[C@@H](CO)C(=O)N[C@@H](Cc2c[nH]c3ccccc23)C(=O)N1C [Example 1500] ({CH2CO}-Y[NMeA]DPH[Dab][Hyp]WSW[NMeNle][NMeNle]ACG-NH2; lactam 3-6; thioether N-14) |

| Structure (SMILES) | IC50 [nM] |
| --- | --- |
| CCCC[C@H]1C(=O)N(C)[C@@H](CCCC)C(=O)N[C@H]2CCC(=O)NCCCC[C@H](NC(=O)[C@H](Cc3c[nH]c4ccccc34)NC(=O)[C@@H]3C[C@@H](O)CN3C(=O)[C@@H]3CCCCNC(=O)C[C@H](NC(=O)[C@H](C)N(C)C(=O)[C@H](Cc4ccc(O)cc4)NC(=O)CSC[C@@H](C(=O)NCC(N)=O)NC2=O)C(=O)N2CCC[C@H]2C(=O)N[C@@H](Cc2c[nH]cn2)C(=O)N3)C(=O)N[C@@H](Cc2c[nH]c3ccccc23)C(=O)N1C [Example 5005] ({CH2CO}-Y[NMeA]DPHK[Hyp]WKW[NMeNle][NMeNle]ECG-NH2; lactam 3-6, 9-13; thioether N-14) | 10 to 99 |
